{
  "source": "patent US20180044640A1",
  "about": "“CONTRACTILE CELLULAR CONSTRUCT FOR CELL CULTURE” (Agency for Science, Technology and Research, priority 2015, published 2018)",
  "key": {"[1]": {"test_system": "iPSC-derived cardiomyocytes monolayer", "assay_type": "cell-based", "conditions": "human; for Time at which significant reduced beating speed was observed / Time of total arrest of beating: 2 days", "procedure": "The 12-day differentiated cardiomyocytes were detached using accutase and suspended in RPMI-B27 medium containing Y-27632 (5 uM). The cell suspension was mixed with FluoSpheres polystyrene microspheres, and loaded into matrigel or fibronectin coated 384-well microplate (Greiner) or 96-well tissue culture plates at 0.25˜0.30 *10^6cells/50˜100 microspheres/cm^2.\nThe videos were recorded for each well at every 1 hr interval and processed using IMARIS software."}, "[2]": {"test_system": "3D cardiac tissues (hiPSC-derived cardiomyocytes)", "procedure": "To generate 3D cardiac tissues, 12-day differentiated cardiac cells were detached from culture wells using accutase (Stem Cell Technologies), suspended in RPMI-B27medium containing Y-27632 (5 uM) to reach a final concentration of 1.5×10^8 cells/mL. Casting molds were prepared by placing the tissue holder and PDMS molds in 96-well culture plates. For each tissue, 12 μL cell suspension was loaded into the cell loading channel. For florescence-labeled cardiac tissue, 12 μL cell suspension was mixed briefly with ˜20 FluoSpheres polystyrene microspheres (diameter 15 μm, Life Technologies) and pipetted into cell loading channels. The 96-well plates were placed in a 37° C., 5% CO2 culture incubator for 2 hours. 0.20 mL of cell culture medium was then added per well for continued culture. After one day of culture, media was changed to RPMI-B27 medium without Y-27632 and changed every day.\nCardiac tissue contractility was assessed based on the recorded video using IMARIS software. The cardiac tissues were labeled with fluorescence beads, as described above. The video was exported as image stacks for IMARIS tracking analysis. The software can identify the contraction and relaxation events based on the relative positions of the florescence beads during the entire tissue beating sequence. These positions were recorded, and the relevant contractility parameters were calculated from the temporal change of these positions.\nToxicity studies were performed using a Zeiss fluorescence microscope, within a closed environment chamber maintaining constant 37° C. temperature and 5% CO2 humidified air for long time lapse imaging of live cells. An experiment design program in Zen software was used to create an automatic measurement program. For chronic drug response, videos were recorded for each well at every 1 h interval.\nThe videos were recorded at cumulative concentrations 1 hr before measurement, and processed using IMARIS software."}, "Cardiac spheroids": {"test_system": "Cardiac spheroids", "assay": "Toxicity assay based on ATP activity (CellTiter-Glo 3D cell viability assay)", "parameters": "species or system human", "conditions": "1 hr incubation, normalized to drug-free controls", "quoted_text": "Cardiac spheroids were incubated with various concentrations of compounds dissolved in culture medium for 1 hr, and cell viability was subsequently measured by CellTiter-Glo® 3D cell viability assay (Promega), which determines the number of viable cells in culture based on quantitation of the ATP present. Data is normalized to drug-free controls. Data from the same treatment on 3 occasions were averaged to represent the mean ATP measurement."}},
  "note": "Read-outs that look alike come from different tables or passages of the source.",
  "data": [
    {"smiles": "N=C(N)c1ccc(OCCCCCOc2ccc(C(=N)N)cc2)cc1", "note": "[pentamidine, Pentamidine]", "values": [
      {"measurement": "Concentration at which complete arrest of beating was observed", "setting": "[1]; 1 h", "value": 100, "unit": "µM"},
      {"measurement": "Concentration showing pronounced changes in contraction speed", "setting": "[1]; 1 h", "value": 10, "unit": "µM"},
      {"measurement": "Time at which significant reduced beating speed was observed", "setting": "[1]; 5 μM", "value": 28, "unit": "h"},
      {"measurement": "Time of total arrest of beating", "setting": "[1]; 5 μM", "value": 44, "unit": "h"},
      {"measurement": "Time at which significant reduced beating speed was observed", "setting": "[1]; 10 μM", "value": 4, "unit": "h"},
      {"measurement": "Time of total arrest of beating", "setting": "[1]; 10 μM", "value": 30, "unit": "h"}
    ]},
    {"smiles": "C=C[C@H]1C[N@@]2CC[C@H]1C[C@@H]2[C@@H](O)c1ccnc2ccc(OC)cc12", "note": "[quinidine]", "values": [
      {"measurement": "Concentration at which complete arrest of contraction was observed", "setting": "[2]; human, 1 h", "value": 10, "unit": "µM"}
    ]},
    {"smiles": "CN(CCOc1ccc(CC2SC(=O)NC2=O)cc1)c1ccccn1", "note": "(stereo not shown) [rosiglitazone, Rosiglitazone]", "values": [
      {"measurement": "Concentration at which complete arrest of contraction was observed", "setting": "[2]; human, 1 h", "value": 50, "unit": "µM"}
    ]},
    {"smiles": "CC[C@H]1OC(=O)[C@H](C)[C@@H](O[C@H]2C[C@@](C)(OC)[C@@H](O)[C@H](C)O2)[C@H](C)[C@@H](O[C@@H]2O[C@H](C)C[C@H](N(C)C)[C@H]2O)[C@](C)(O)C[C@@H](C)C(=O)[C@H](C)[C@@H](O)[C@]1(C)O", "note": "[erythromycin]", "values": [
      {"measurement": "Concentration up to which negligible / no significant toxicity was detected (ATP-based cell viability)", "setting": "Cardiac spheroids", "value": "up to 500 μM"},
      {"measurement": "Concentration at which complete arrest of contraction was observed", "setting": "[2]; human, 1 h", "value": 10, "unit": "µM"}
    ]},
    {"smiles": "CN(C)C(=N)N=C(N)N", "note": "[metformin]", "values": [
      {"measurement": "Change in beating rates", "setting": "[2]", "value": "less pronounced changes in beating rates"}
    ]},
    {"smiles": "Cc1c(C)c2c(c(C)c1O)CCC(C)(COc1ccc(CC3SC(=O)NC3=O)cc1)O2", "note": "(stereo not shown) [troglitazone]", "values": [
      {"measurement": "Concentration at which complete arrest of contraction was observed", "setting": "[2]; human, 1 h", "value": 50, "unit": "µM"}
    ]},
    {"smiles": "N[C@@H]1[C@H]2CN(c3nc4c(cc3F)c(=O)c(C(=O)O)cn4-c3ccc(F)cc3F)C[C@@H]12", "note": "[trovafloxacin]", "values": [
      {"measurement": "Concentration at which complete arrest of contraction was observed", "setting": "[2]; human, 1 h", "value": 100, "unit": "µM"}
    ]},
    {"smiles": "CC1(C)S[C@@H]2[C@H](NC(=O)[C@H](N)c3ccccc3)C(=O)N2[C@H]1C(=O)O", "note": "[ampicillin, Ampicillin]", "values": [
      {"measurement": "Concentration up to which negligible / no significant toxicity was detected (ATP-based cell viability)", "setting": "Cardiac spheroids", "value": "≤ 10000", "unit": "µM"},
      {"measurement": "Concentration up to which negligible beating rate changes were observed", "setting": "[2]; human, 1 h", "value": "up to 1 mM"}
    ]},
    {"smiles": "CCS(=O)(=O)N(C)[C@H]1c2cc(C#N)ccc2OC(C)(C)[C@@H]1O", "note": "(racemic) [chromanol 293B]", "values": [
      {"measurement": "Concentration at which complete arrest of contraction was observed", "setting": "[2]", "value": 200, "unit": "µM"}
    ]}
  ]
}
